US6914045B2, “Glycopeptide antibiotics” (Wyeth Holdings Corporation, priority 2001, dated 2005)
In brackets after ≈: the same amount, converted by molar mass.

Key:
Test in all cases: in vitro antibacterial evaluation, MIC by broth dilution
Assay type in all cases: cell-based
[1] = test system: Enterococcus sp.; conditions: broth dilution, 18 hours at 35° C.; for MIC Enterococcus faecalis (ATCC 29212): strain ATCC 29212; for MIC Enterococcus faecalis (GC 2242): strain GC 2242; for MIC Enterococcus faecium (GC 2243): strain GC 2243; for MIC Enterococcus faecalis (GC 2691): strain GC 2691; for MIC Enterococcus faecalis (GC 3059): strain GC 3059; for MIC Enterococcus faecalis (GC 4552): strain GC 4552; for MIC Enterococcus faecalis (GC 4553): strain GC 4553; for MIC Enterococcus faecalis (GC 4554): strain GC 4554; for MIC Enterococcus faecium (GC 4556): strain GC 4556; for MIC Enterococcus faecium (GC 4557): strain GC 4557; for MIC Enterococcus avium (GC 4558): strain GC 4558; for MIC Enterococcus faecalis (GC 6189): strain GC 6189
Outline: (§1)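 Following National Committee for Clinical Laboratory Standards recommendations (M7-A2), susceptibility was measured by dilution in Muller-Hinton II […]. Bacteria were seeded at 5×10^5 CFU/mL against compound concentrations from 64 down to 0.06 μg/mL.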

[2] = test system: Escherichia coli
Outline: as §1

[3] = test system: Staphylococcus sp.; conditions: broth dilution, 18 hours at 35° C.; for MIC Staphylococcus aureus (GC 1131): strain GC 1131
Outline: as §1

[4] = test system: Streptococcus sp.; conditions: broth dilution, 18 hours at 35° C.; for MIC Streptococcus pneumoniae (ATCC 6301): strain ATCC 6301; for MIC Streptococcus pneumoniae (GC 1894): strain GC 1894; for MIC Streptococcus pyogenes (GC 4563): strain GC 4563; for MIC Streptococcus agalactiae (GC 4564): strain GC 4564; for MIC Streptococcus pneumoniae (GC 4565): strain GC 4565
Outline: as §1

MIC Enterococcus faecalis (ATCC 29212) ([1]; inoculum 5×10^5 CFU/mL): 8 µg/mL (≈ 5.39 µM)
MIC Enterococcus faecalis (GC 2242) ([1]; inoculum 5×10^5 CFU/mL): 4 µg/mL (≈ 2.69 µM)
MIC Enterococcus faecium (GC 2243) ([1]; inoculum 5×10^5 CFU/mL): 8 µg/mL (≈ 5.39 µM)
MIC Enterococcus faecalis (GC 2691) ([1]; inoculum 5×10^5 CFU/mL): 4 µg/mL (≈ 2.69 µM)
MIC Enterococcus faecalis (GC 3059) ([1]; inoculum 5×10^5 CFU/mL): 8 µg/mL (≈ 5.39 µM)
MIC Enterococcus faecalis (GC 4552) ([1]; inoculum 5×10^5 CFU/mL): 8 µg/mL (≈ 5.39 µM)
MIC Enterococcus faecalis (GC 4553) ([1]; inoculum 5×10^5 CFU/mL): 4 µg/mL (≈ 2.69 µM)
MIC Enterococcus faecalis (GC 4554) ([1]; inoculum 5×10^5 CFU/mL): 4 µg/mL (≈ 2.69 µM)
MIC Enterococcus faecium (GC 4556) ([1]; inoculum 5×10^5 CFU/mL): 8 µg/mL (≈ 5.39 µM)
MIC Enterococcus faecium (GC 4557) ([1]; inoculum 5×10^5 CFU/mL): 8 µg/mL (≈ 5.39 µM)
MIC Enterococcus avium (GC 4558) ([1]; inoculum 5×10^5 CFU/mL): 4 µg/mL (≈ 2.69 µM)
MIC Enterococcus faecalis (GC 6189) ([1]; inoculum 5×10^5 CFU/mL): 2 µg/mL (≈ 1.35 µM)
MIC Enterococcus faecalis (ATCC 29212) [1]: 8 µg/mL (≈ 5.39 µM)
MIC Enterococcus faecalis (GC 2242) [1]: 4 µg/mL (≈ 2.69 µM)
MIC Enterococcus faecium (GC 2243) [1]: 8 µg/mL (≈ 5.39 µM)
MIC Enterococcus faecalis (GC 2691) [1]: 4 µg/mL (≈ 2.69 µM)
MIC Enterococcus faecalis (GC 3059) [1]: 8 µg/mL (≈ 5.39 µM)
MIC Enterococcus faecalis (GC 4552) [1]: 8 µg/mL (≈ 5.39 µM)
MIC Enterococcus faecalis (GC 4553) [1]: 4 µg/mL (≈ 2.69 µM)
MIC Enterococcus faecalis (GC 4554) [1]: 4 µg/mL (≈ 2.69 µM)
MIC Enterococcus faecium (GC 4556) [1]: 8 µg/mL (≈ 5.39 µM)
MIC Enterococcus faecium (GC 4557) [1]: 8 µg/mL (≈ 5.39 µM)
MIC Enterococcus avium (GC 4558) [1]: 4 µg/mL (≈ 2.69 µM)
MIC Enterococcus faecalis (GC 6189) [1]: 2 µg/mL (≈ 1.35 µM)
MIC Escherichia coli (ATCC 25922) ([2]; strain ATCC 25922, 18 hours at 35° C.): >64 µg/mL
MIC Escherichia coli (GC 4559) ([2]; strain GC 4559, 18 hours at 35° C.): >64 µg/mL
MIC Escherichia coli (GC 4560) ([2]; strain GC 4560, 18 hours at 35° C.): 2 µg/mL (≈ 1.35 µM)
MIC Staphylococcus aureus (GC 1131) ([3]; inoculum 5×10^5 CFU/mL): 8 µg/mL (≈ 5.39 µM)
MIC Staphylococcus aureus (ATCC 29213) ([3]; strain ATCC 29213): 4 µg/mL (≈ 2.69 µM)
MIC Staphylococcus aureus (GC 1131) [3]: 8 µg/mL (≈ 5.39 µM)
MIC Staphylococcus aureus (GC 3051) ([3]; strain GC 3051): 4 µg/mL (≈ 2.69 µM)
MIC Staphylococcus aureus (GC 3053) ([3]; strain GC 3053): 4 µg/mL (≈ 2.69 µM)
MIC Staphylococcus aureus (GC 4541) ([3]; strain GC 4541): 4 µg/mL (≈ 2.69 µM)
MIC Staphylococcus aureus (GC 4542) ([3]; strain GC 4542): 2 µg/mL (≈ 1.35 µM)
MIC Staphylococcus aureus-SMITH (GC 4543) ([3]; strain GC 4543): 8 µg/mL (≈ 5.39 µM)
MIC Staphylococcus aureus (GC 4544) ([3]; strain GC 4544): 8 µg/mL (≈ 5.39 µM)
MIC Staphylococcus aureus (GC 4545) ([3]; strain GC 4545): 4 µg/mL (≈ 2.69 µM)
MIC Coagulase Negative Staphylococcus (GC 4547) ([3]; strain GC 4547): 8 µg/mL (≈ 5.39 µM)
MIC Coagulase Negative Staphylococcus (GC 4548) ([3]; strain GC 4548): 2 µg/mL (≈ 1.35 µM)
MIC Coagulase Negative Staphylococcus (GC 4549) ([3]; strain GC 4549): 2 µg/mL (≈ 1.35 µM)
MIC Coagulase Negative Staphylococcus (GC 4551) ([3]; strain GC 4551): 4 µg/mL (≈ 2.69 µM)
MIC Coagulase Negative Staphylococcus (GC 6257) ([3]; strain GC 6257): 2 µg/mL (≈ 1.35 µM)
MIC Streptococcus pneumoniae (ATCC 6301) ([4]; inoculum 5×10^5 CFU/mL): <0.06 µg/mL
MIC Streptococcus pneumoniae (GC 1894) ([4]; inoculum 5×10^5 CFU/mL): <0.06 µg/mL
MIC Streptococcus pyogenes (GC 4563) ([4]; inoculum 5×10^5 CFU/mL): 0.12 µg/mL (≈ 0.0808 µM)
MIC Streptococcus agalactiae (GC 4564) ([4]; inoculum 5×10^5 CFU/mL): <0.06 µg/mL
MIC Streptococcus pneumoniae (GC 4565) ([4]; inoculum 5×10^5 CFU/mL): <0.06 µg/mL
MIC Streptococcus pneumoniae (ATCC 6301) [4]: <0.06 µg/mL
MIC Streptococcus pneumoniae (GC 1894) [4]: <0.06 µg/mL
MIC Streptococcus pyogenes (GC 4563) [4]: 0.12 µg/mL (≈ 0.0808 µM)
MIC Streptococcus agalactiae (GC 4564) [4]: <0.06 µg/mL
MIC Streptococcus pneumoniae (GC 4565) [4]: <0.06 µg/mL
SMILES: CC(c1ccccc1)C1NC(=O)CNC(=O)C(CO)NC(=O)C(C(O)C2CNC(=N)N2C2OC(CO)C(O)C(O)C2O)NC(=O)C(C(O)C2CNC(=N)N2)NC(=O)C(Cc2ccc(OC3OC(CO)C(OC4OC5COC(c6ccc(C=Cc7ccccc7)cc6)OC5C(O)C4O)C(O)C3O)cc2)NC1=O (centres unmarked) [Example 172]
MIC Staphylococcus haemolyticus (GC 4546) ([3]; strain GC 4546): 8 µg/mL (≈ 5.39 µM)
